The record followed here is patent US12201635B2, “Multi-target kinase inhibitor, pharmaceutical composition, and preparation method for multi-target kinase inhibitor and use thereof” (GUANGZHOU LIUSHUN BIOTECHNOLOGY CO., LTD., priority 2019, dated 2025).

The test system of assay [1] is KYSE 410 esophageal cancer. Put plainly: In vivo anti-tumor activity, nude mouse tumor model of KYSE 410 esophageal cancer. The settings on record: KYSE 410 esophageal cancer mice. The text has this: (§1) In this example, the in vivo anti-tumor activity (liver cancer/esophageal cancer) of the multi-target kinase inhibitor [Compound (I-1)] was investigated according to the requirements in Guidelines for Pharmacodynamics of Anti-tumor Drugs. The experimental procedures and results are as follows:
(§2) Tumor models of nude mice were established using […] heptoma cells and KYSE 410 esophageal cancer cells that meet modeling conditions. The modeled mice were divided into 5 groups: a model group, a Compound (I-1) 5 mg/kg group, a Compound (I-1) 10 mg/kg group, a Compound (I-1) 20 mg/kg group, and a positive control group (sorafenib or cabozantinib). Administration was performed from the day of grouping that was counted as day 1 and for 21 consecutive days, and the 21st day was counted as day21. Tumor volumes were measured twice a week during the period of administration for statistical test.

The target of another assay is VEGFR3 (Homo sapiens, UniProt P35916). The assay can be described thus: Z'-LYTE kinase inhibition assay, VEGFR3. It counts as biochemical. As for the experimental part:
(§3) 1. The compounds to be detected were accurately weighed and added into DMSO to form stock solutions, which were then diluted to desired concentrations with a buffer to give solutions of the compounds to be detected.
(§4) 2. An RET or VEGFR3 or PDGFRA kinase solution, corresponding substrate solutions of Z′-LYTE, a buffer or a compound to be detected and ATP were added into a 384 reaction vessel, and reacted at room temperature for 1 h.
(§5) 3. To each well was added a fluorescence enhancer, followed by incubation at room temperature for 1 h.
(§6) 4. Data were read separately using a fluorescence analyzer.
(§7) 1. The relative inhibitory rate for each well was calculated according to a formula.
(§8) 2. Active samples were diluted and tested for relative inhibitory rates, and the inhibitory rates IC50 were calculated by plotting in the software Xlfit.

The target in a further assay is RET (Homo sapiens, UniProt P07949). The assay can be described thus: Z'-LYTE kinase inhibition assay, RET. It counts as biochemical. How it is done:
as §3, §4, §5, §6, §7, §8

In the next assay the test system is SMMC-7721 hepatoma. Put plainly: In vivo anti-tumor activity, nude mouse tumor model of SMMC-7721 liver cancer. Conditions: SMMC-7721 liver cancer mice.
From the text: as §1, §2

The next assay addresses PDGFRA (Homo sapiens, UniProt P16234). Put plainly: Z'-LYTE kinase inhibition assay, PDGFRA. Type of assay: biochemical. How it is done: as §3, §4, §5, §6, §7, §8
The mark [2] stands for this setting: 5, 10 and 20 mg/kg, 21 consecutive days, day21 ANOVA P<0.0001.
Where [3] appears, read: 10 and 20 mg/kg, positive control sorafenib or cabozantinib.

VEGFR3, sequence (P35916 25-1363): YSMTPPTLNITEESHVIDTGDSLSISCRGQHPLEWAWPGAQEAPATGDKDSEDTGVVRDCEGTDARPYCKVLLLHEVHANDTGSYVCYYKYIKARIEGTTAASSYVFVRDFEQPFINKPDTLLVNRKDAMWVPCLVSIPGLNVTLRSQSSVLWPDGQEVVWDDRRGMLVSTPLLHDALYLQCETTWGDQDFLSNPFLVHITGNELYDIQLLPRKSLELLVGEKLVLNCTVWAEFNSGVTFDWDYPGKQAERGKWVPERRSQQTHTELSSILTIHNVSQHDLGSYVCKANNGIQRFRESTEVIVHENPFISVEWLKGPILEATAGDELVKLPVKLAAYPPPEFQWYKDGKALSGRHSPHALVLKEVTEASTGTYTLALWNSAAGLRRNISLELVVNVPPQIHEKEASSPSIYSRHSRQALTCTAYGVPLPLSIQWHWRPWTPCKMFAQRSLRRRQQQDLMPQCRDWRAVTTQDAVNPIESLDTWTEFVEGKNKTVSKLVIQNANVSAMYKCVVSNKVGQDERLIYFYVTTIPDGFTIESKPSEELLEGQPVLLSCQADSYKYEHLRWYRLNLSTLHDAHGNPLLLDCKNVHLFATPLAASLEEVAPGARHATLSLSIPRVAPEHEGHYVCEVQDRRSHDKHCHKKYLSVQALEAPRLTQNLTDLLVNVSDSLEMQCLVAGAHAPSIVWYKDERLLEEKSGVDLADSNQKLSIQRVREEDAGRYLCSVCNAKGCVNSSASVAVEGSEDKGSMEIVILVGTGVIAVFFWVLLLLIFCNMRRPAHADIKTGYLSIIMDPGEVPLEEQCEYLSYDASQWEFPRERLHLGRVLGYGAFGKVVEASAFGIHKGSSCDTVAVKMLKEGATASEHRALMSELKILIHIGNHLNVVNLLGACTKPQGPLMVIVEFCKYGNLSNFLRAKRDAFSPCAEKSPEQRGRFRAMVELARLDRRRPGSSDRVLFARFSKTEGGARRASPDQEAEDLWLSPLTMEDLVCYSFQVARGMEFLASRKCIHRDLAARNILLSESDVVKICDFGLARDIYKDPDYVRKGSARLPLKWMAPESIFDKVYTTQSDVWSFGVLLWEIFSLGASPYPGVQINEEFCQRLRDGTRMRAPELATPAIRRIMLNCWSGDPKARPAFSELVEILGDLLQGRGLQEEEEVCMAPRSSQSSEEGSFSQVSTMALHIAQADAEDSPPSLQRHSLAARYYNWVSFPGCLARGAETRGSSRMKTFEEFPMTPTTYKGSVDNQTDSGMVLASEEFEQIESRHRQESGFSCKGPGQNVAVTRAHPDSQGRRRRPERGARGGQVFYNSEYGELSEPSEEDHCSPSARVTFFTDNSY
RET, sequence (P07949 29-1114): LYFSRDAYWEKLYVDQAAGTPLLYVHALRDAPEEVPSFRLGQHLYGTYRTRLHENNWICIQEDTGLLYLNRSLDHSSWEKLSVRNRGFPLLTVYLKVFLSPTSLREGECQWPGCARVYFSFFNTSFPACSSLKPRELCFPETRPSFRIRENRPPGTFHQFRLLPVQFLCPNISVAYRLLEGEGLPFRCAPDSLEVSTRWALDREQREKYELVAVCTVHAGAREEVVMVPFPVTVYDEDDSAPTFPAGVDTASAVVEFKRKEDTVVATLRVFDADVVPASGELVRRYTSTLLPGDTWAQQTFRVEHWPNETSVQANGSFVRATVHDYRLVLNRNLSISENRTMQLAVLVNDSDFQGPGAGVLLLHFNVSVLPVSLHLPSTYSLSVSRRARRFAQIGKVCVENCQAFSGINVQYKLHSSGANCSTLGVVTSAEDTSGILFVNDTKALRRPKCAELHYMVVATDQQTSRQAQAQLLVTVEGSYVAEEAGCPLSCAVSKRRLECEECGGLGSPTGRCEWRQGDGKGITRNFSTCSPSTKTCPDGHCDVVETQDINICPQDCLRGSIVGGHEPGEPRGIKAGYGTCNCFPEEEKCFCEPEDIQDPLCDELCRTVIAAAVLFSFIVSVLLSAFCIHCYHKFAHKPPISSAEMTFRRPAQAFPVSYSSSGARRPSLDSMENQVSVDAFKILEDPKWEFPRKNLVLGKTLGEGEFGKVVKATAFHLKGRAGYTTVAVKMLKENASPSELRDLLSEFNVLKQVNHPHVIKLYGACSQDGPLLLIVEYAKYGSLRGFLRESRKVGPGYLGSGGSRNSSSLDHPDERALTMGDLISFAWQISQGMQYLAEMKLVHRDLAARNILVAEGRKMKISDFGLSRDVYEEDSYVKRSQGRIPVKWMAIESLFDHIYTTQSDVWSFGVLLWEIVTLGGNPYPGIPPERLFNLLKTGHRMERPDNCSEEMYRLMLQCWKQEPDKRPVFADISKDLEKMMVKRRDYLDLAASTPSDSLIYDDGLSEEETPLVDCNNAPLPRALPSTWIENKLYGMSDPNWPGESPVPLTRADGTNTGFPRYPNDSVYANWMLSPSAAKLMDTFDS
PDGFRA, sequence (P16234 24-1089): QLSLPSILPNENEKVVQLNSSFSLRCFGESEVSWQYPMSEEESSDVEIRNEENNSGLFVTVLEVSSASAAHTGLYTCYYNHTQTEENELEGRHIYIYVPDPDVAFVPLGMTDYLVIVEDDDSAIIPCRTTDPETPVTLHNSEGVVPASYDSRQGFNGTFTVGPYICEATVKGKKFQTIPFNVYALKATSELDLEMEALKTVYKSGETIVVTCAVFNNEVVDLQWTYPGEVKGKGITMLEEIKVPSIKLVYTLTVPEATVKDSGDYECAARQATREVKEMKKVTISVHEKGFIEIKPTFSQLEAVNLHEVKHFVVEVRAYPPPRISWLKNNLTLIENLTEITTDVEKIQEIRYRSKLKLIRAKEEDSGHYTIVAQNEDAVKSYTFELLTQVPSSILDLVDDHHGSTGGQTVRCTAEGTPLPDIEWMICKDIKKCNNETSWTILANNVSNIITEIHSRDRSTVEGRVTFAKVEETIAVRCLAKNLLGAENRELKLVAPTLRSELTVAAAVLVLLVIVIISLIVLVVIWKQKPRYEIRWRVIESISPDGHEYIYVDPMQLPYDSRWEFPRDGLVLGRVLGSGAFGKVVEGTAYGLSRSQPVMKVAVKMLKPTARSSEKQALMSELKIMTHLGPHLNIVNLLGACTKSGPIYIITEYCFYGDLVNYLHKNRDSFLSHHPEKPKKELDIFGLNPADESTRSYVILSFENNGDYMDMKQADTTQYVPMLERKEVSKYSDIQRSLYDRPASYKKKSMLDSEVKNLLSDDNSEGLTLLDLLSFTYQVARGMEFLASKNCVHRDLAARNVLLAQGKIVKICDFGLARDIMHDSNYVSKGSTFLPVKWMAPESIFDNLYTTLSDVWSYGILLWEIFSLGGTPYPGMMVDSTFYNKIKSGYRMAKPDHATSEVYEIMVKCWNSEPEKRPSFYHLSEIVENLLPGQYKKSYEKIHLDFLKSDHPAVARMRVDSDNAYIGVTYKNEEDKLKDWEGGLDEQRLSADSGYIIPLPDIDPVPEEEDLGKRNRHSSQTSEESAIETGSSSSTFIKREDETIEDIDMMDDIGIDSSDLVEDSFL

Turning to `COc1cc2ncnc(Oc3ccc(NC(=O)NC4CC4)cc3)c2cc1OC` [Compound I-1], the “Tumor volume compared with the model group” value (in assay [1] (setting [2]); with SMMC-7721 hepatoma (setting [2])) was “lower tumor volumes” throughout. Also, the “Tumor volume compared with the positive control group” value (in assay [1] (setting [3]); with SMMC-7721 hepatoma (setting [3])) was “lower tumor volumes” in each case. Also, the IC50 at VEGFR3 was determined as 30 nM; on RET it was 12 nM; on PDGFRA, 60 nM.
In the case of `COc1cc2ncnc(Oc3ccc(NC(=O)NC4CCC4)cc3)c2cc1OC` [Compound I-2], the IC50 worked out at 16 nM at VEGFR3, 37 nM at RET and 308 nM against PDGFRA.
On to `COc1cc2ncnc(Oc3ccc(NC(=O)NC4CCCC4)cc3)c2cc1OC` [Compound I-3], for which the IC50 worked out at 9 nM against VEGFR3, 85 nM at RET and 62 nM against PDGFRA.
Consider `C=CNC(=O)Nc1ccc(Oc2ncnc3cc(OC)c(OC)cc23)cc1` [Compound I-4], for which the IC50 came to 65 nM against VEGFR3, 26 nM on RET and 52 nM against PDGFRA.
With `COc1cc2ncnc(Oc3ccc(NC(=O)N4CCCC4)cc3)c2cc1OC` [Compound I-5], the results for the IC50 against VEGFR3, against RET and on PDGFRA were 213 nM, 102 nM and 124 nM, respectively.
For `COc1cc2ncnc(Oc3ccc(NC(=O)N4CCCCC4)cc3)c2cc1OC` [Compound I-6], the half-maximal inhibitory concentration (IC50) against VEGFR3 turned out to be 328 nM; against RET, 251 nM; on PDGFRA it was 632 nM.

Broadly, the IC50 is the concentration that inhibits the measured activity by half. A lower IC50 goes with greater potency in that assay.
